# Measured values from patent US10925881B2, “Treatment of conditions associated with hyperinsulinaemia” (Tensha Therapeutics, Inc., priority 2014, dated 2021).
# Where two headings read alike, the source gives them in different places.
# Experiments:
# BRD4(2) = BRD4(2) (Homo sapiens (Human), UniProt O60885); test: Alpha-assay binding, BRD4 site 2; settings: for binding activity with the BRD4 site 2: result in words
# BRD4(1) = BRD4(1) (Homo sapiens (Human), UniProt O60885); test: Alpha-assay binding, BRD4 site 1; settings: for binding activity with the BRD4 site 1: result in words
# Experimental: The binding activity of lead compounds with the BRD4 site 1 was determined by Alpha-assay with a 12-point dose response curve.
# RIN-14B = test: Cell Titer-Glo rat insulinoma cell assay, RIN-14B; assay type: cell-based
# Experimental: (§1) Paclitaxel was used as a positive control.
# (§2) Cells were seeded at 5000 cells per well in a 96-well microculture plate in a total volume of 100 μl/well and incubated for 24 hours. […] The concentrations tested for paclitaxel were, 10 μM, 2.5 μM, 0.625 μM, 0.156 μM, 0.0391 μM, 0.00977 μM, 0.00244 μM, 0.000610 μM, 0.000153 μM, and 0.0000381 μM. Duplicate data for RIN-5F was obtained where the test concentrations for paclitaxel were, 1 μM, 0.25 μM, 0.0625 μM, 0.0156 μM, 0.00391 μM, 0.000977 μM, 0.000244 μM, 0.0000610 μM, 0.0000153 μM, and 0.00000381 μM. After 168-192 total hours of culture 100 μl of media was removed from each well and 50 μl of Cell Titer-Glo (Promega #G7571) was added to each well. The plate was shaken for 2 minutes and allowed to equilibrate for 10 minutes. Luminescence was measured on a Tecan GENios microplate reader. Percent inhibition of cell viability was calculated relative to untreated control wells. All tests were performed in triplicate or quadruplicates at each concentration level. IC50 values were calculated using Prism 6.00 curve-fitting with a four parameter-logistic equation.
# (§3) Cells were seeded at 5000 cells per well in a 96-well microculture plate in a total volume of 100 μl/well and incubated for 24 hours. […] After 168-192 total hours of culture 100 μl of media was removed from each well and 50 μl of Cell Titer-Glo (Promega #G7571) was added to each well. The plate was shaken for 2 minutes and allowed to equilibrate for 10 minutes. Luminescence was measured on a Tecan GENios microplate reader. Percent inhibition of cell viability was calculated relative to untreated control wells. All tests were performed in triplicate or quadruplicates at each concentration level. IC50 values were calculated using Prism 6.00 curve-fitting with a four parameter-logistic equation.
# RIN-5F = test: Cell Titer-Glo rat insulinoma cell assay, RIN-5F; assay type: cell-based; settings: cell viability after 168-192 total hours of culture
# Experimental: as §1, §2, §3
# RIN-m = test: Cell Titer-Glo rat insulinoma cell assay, RIN-m; assay type: cell-based
# Experimental: as §1, §2, §3
# [1] = system: four rat insulinoma (RIN) cell lines, RIN-14B, RIN-m5F, RIN-m, and RIN-5; test: Cell Titer-Glo rat insulinoma cell assay, statement for all four cell lines; assay type: cell-based; settings: for cell viability at higher concentrations: cytotoxic effect; for IC50: read-out: IC50 values, all cell lines
# Experimental: as §1
# (§4) The plate was shaken for 2 minutes and allowed to equilibrate for 10 minutes. Luminescence was measured on a Tecan GENios microplate reader. Percent inhibition of cell viability was calculated relative to untreated control wells. All tests were performed in triplicate or quadruplicates at each concentration level. IC50 values were calculated using Prism 6.00 curve-fitting with a four parameter-logistic equation.
# as §4
# RIN-m5F = test: Cell Titer-Glo rat insulinoma cell assay, RIN-m5F; assay type: cell-based
# Experimental: as §1, §2, §3
# [2] = at least one biological assay (not specified)
# [3] = system: RIN-m5F rat insulinoma cells; test: RNA-Seq expression analysis of JQ1 treated RIN-m5F insulinoma cells; assay type: cell-based; settings: 500 nM, 24 hr; result in words
# Experimental: As shown below, BET inhibition disrupts both oncogenic and pancreatic islet cell transcriptional profiles.
# Cells were scraped and total RNA was extracted and purified using a Qiagen RNeasy Mini Kit (cat. 74104) as described in the manufacturer's protocol. […] For each sample, 4 μg of total RNA was then used in Illumina's TruSeq RNA sample preparation V2 kit. […] Libraries were sequenced on Illumina NextSeq 500 as paired-end 75-nt reads.
# Sequence reads were analyzed with the TopHat—Cufflinks software pipeline. Average size of library molecules was 400 bp, therefore the—r parameter was set to […]. (Versions were: TopHat v2.0.9, Bowtie 2.1.0.0, Cufflinks v2.1.1). The rat (rn5) gene reference GTF file was obtained from Illumina iGenomes.
structure (smiles),measurement,setting,value
Cc1sc2c(c1C)C(c1ccc(Cl)cc1)=N[C@@H](CC(=O)NCCN1CCOCC1)c1nnc(C)n1-2 (stereo in doubt) [(S)-JQ33],IC50,"BRD4(2); 12-point dose response curve, read-out: Bio-assay IC50 BRD4(2)",29.5 nM
same,binding activity with the BRD4 site 2,BRD4(2),excellent binding activity
same,IC50,"BRD4(1); 12-point dose response curve, read-out: Bio-assay IC50 BRD4(1)",85 nM
same,binding activity with the BRD4 site 1,BRD4(1),excellent binding activity
Cc1sc2c(c1C)C(c1ccc(Cl)cc1)=N[C@@H](CC(=O)NCCCN1CCN(C)CC1)c1nnc(C)n1-2 (stereo in doubt) [(S)-JQ35],IC50,"RIN-14B; Example 8 additional data, cell viability after 168-192 total hours of culture, read-out: IC50 Values, RIN-14B",207 nM
same,IC50,"RIN-5F; Example 8 additional data, two values, read-out: IC50 Values, RIN-5F",215 nM
same,IC50,"RIN-5F; Rattus norvegicus, Example 8 additional data, two values, read-out: IC50 Values, RIN-5F",183 nM
same,IC50,"RIN-m; Example 8 additional data, cell viability after 168-192 total hours of culture, read-out: IC50 Values, RIN-m",151 nM
same,cell viability at higher concentrations,[1]; Example 8,~0%
same,IC50,"[1]; Rattus norvegicus, RIN-m5F, Example 8",< 200 nM
same,IC50,"RIN-m5F; Example 8 additional data, cell viability after 168-192 total hours of culture, read-out: IC50 Values, RIN-m5F",188 nM
same,binding activity with the BRD4 site 2,BRD4(2),excellent binding activity
same,binding activity with the BRD4 site 1,BRD4(1),excellent binding activity
"Cc1sc2c(c1C)C(c1ccc(Cl)cc1)=N[C@@H](CC(=O)OC(C)(C)C)c1nnc(C)n1-2 [(S)-JQ1, (S)-tert-Butyl 2-(4-(4-chlorophenyl)-2,3,9-trimethyl-6H-thieno[3,2-f][1,2,4]triazolo [4,3-a][1,4]diazepin-6-yl)acetate]",IC50,"RIN-14B; read-out: IC50 Values, RIN-14B, Example 3, Table 1, cell viability after 168-192 total hours of culture",17 nM
same,IC50,"RIN-14B; read-out: IC50 Values, RIN-14B, Example 8 additional data, cell viability after 168-192 total hours of culture",20.7 nM
same,IC50,"RIN-5F; Rattus norvegicus, read-out: IC50 Values, RIN-5F, Example 3, Table 1, duplicate data",96 nM
same,IC50,"RIN-5F; Rattus norvegicus, read-out: IC50 Values, RIN-5F, Example 8 additional data, two values",52 nM
same,IC50,"RIN-5F; read-out: IC50 Values, RIN-5F, Example 3, Table 1, duplicate data",61 nM
same,IC50,"RIN-5F; read-out: IC50 Values, RIN-5F, Example 8 additional data, two values",73.1 nM
same,IC50,"RIN-m; read-out: IC50 Values, RIN-m, Example 3, Table 1, cell viability after 168-192 total hours of culture",34 nM
same,IC50,"RIN-m; read-out: IC50 Values, RIN-m, Example 8 additional data, cell viability after 168-192 total hours of culture",29.3 nM
same,cell viability at higher concentrations,[1]; Example 3,~0%
same,cell viability at higher concentrations,[1]; Example 8,~0%
same,IC50,"[1]; Rattus norvegicus, RIN-m5F",< 100 nM
same,IC50,[1]; Example 8,< 100 nM
same,IC50,"RIN-m5F; read-out: IC50 Values, RIN-m5F, Example 3, Table 1, cell viability after 168-192 total hours of culture",31 nM
same,IC50,"RIN-m5F; read-out: IC50 Values, RIN-m5F, Example 8 additional data, cell viability after 168-192 total hours of culture",51 nM
Cc1sc2c(c1C)C(c1ccc(Cl)cc1)=N[C@@H](CC(=O)N/N=C/c1ncc[nH]1)c1nnc(C)n1-2 [(S)-JQ6],binding activity with the BRD4 site 2,BRD4(2),excellent binding activity
same,binding activity with the BRD4 site 1,BRD4(1),excellent binding activity
Cc1sc2c(c1C)C(c1ccc(Cl)cc1)=N[C@@H](CC(=O)NCCc1cnc[nH]1)c1nnc(C)n1-2 [(S)-JQ8],binding activity with the BRD4 site 2,BRD4(2),excellent binding activity
same,binding activity with the BRD4 site 1,BRD4(1),excellent binding activity
Cc1sc2c(c1C)C(c1ccc(Cl)cc1)=N[C@@H](CC(=O)NCCN1CCN(C)CC1)c1nnc(C)n1-2 [(S)-JQ13],binding activity with the BRD4 site 2,BRD4(2),excellent binding activity
same,binding activity with the BRD4 site 1,BRD4(1),excellent binding activity
Cc1sc2c(c1C)C(c1ccc(Cl)cc1)=NC(CC(=O)NN)c1nnc(C)n1-2 (stereo not shown) [Compound 3],activity in at least one biological assay,[2],showed activity
"Cc1sc2c(c1C)C(c1ccc(Cl)cc1)=NC(CC(=O)OC(C)(C)C)c1nnc(C)n1-2 (stereo not shown) [JQ1, tert-Butyl 2-(4-(4-chlorophenyl)-2,3,9-trimethyl-6H-thieno[3,2-f][1,2,4]triazolo[4,3-a][1,4]diazepin-6-yl)acetate]",genes with decreased versus increased expression,[3],larger number of genes with decreased expression as compared to increased expression
"CC(=O)O[C@H]1C(=O)[C@@]2(C)[C@H]([C@H](OC(=O)c3ccccc3)[C@]3(O)C[C@H](OC(=O)[C@H](O)[C@@H](NC(=O)c4ccccc4)c4ccccc4)C(C)=C1C3(C)C)[C@]1(OC(C)=O)CO[C@@H]1C[C@@H]2O [Paclitaxel, reference compound]",IC50,"RIN-14B; Example 3, Table 1, cell viability after 168-192 total hours of culture, read-out: IC50 Values, RIN-14B",1.33 nM
same,IC50,"RIN-5F; Example 3, Table 1, duplicate data, read-out: IC50 Values, RIN-5F",3.14 nM
same,IC50,"RIN-5F; Rattus norvegicus, Example 3, Table 1, duplicate data, read-out: IC50 Values, RIN-5F",1.63 nM
same,IC50,"RIN-m; Example 3, Table 1, cell viability after 168-192 total hours of culture, read-out: IC50 Values, RIN-m",0.718 nM
same,IC50,"RIN-m5F; Example 3, Table 1, cell viability after 168-192 total hours of culture, read-out: IC50 Values, RIN-m5F",0.43 nM
